Laboratory results taken from patent US11059786B2, “Aminopyridine compounds and methods for the preparation and use thereof” (Cortexyme, Inc., priority 2017, dated 2021).

Biological target: T1, RgpB (Porphyromonas gingivalis, UniProt P95493)
T1 construct: 0.02 nM RgpB, isolated from culture of Porphyromonas gingivalis; endogenous in cells
Assay: RgpB inhibition, fluorogenic assay
Assay type: biochemical
Conditions: Activity (RgpB IC50), 0.02 nM RgpB, 10 μM Boc-Phe-Ser-Arg-MCA, 90 minutes, 37° C., pH=7.5
Procedure: The capacities of compounds of the present invention to inhibit the activity of RgpB were measured in a fluorogenic assay similar to those described in Barret Biochemical Journal. 1980, 187(3), 909. The specific assay conditions were as follows. Buffer: pH=7.5, 100 mM Tris-HCl, 75 mM NaCl, 2.5 mM CaCl2, 10 mM cysteine, 1% DMSO after all additions. Protein: 0.02 nM RgpB, isolated from culture of Porphyromonas gingivalis, as described in Pike et al. J. Biol. Chem. 1994, 269(1), 406, and Potempa and Nguyen. Current Protocols in Protein Scienc. 2007, 21.20.1-21.20.27. Fluorogenic substrate: 10 μM Boc-Phe-Ser-Arg-MCA. Time=90 minutes. Temperature=37° C. Each compound: 10 concentrations, starting at either 100 μM or 100 nM, with lower concentrations generated by serial 3-fold dilutions. By testing a range of concentrations for each compound, the concentration required to inhibit the activity of RgpB by 50% (the “IC50”) was determined.

T1 sequence (P95493 230-664): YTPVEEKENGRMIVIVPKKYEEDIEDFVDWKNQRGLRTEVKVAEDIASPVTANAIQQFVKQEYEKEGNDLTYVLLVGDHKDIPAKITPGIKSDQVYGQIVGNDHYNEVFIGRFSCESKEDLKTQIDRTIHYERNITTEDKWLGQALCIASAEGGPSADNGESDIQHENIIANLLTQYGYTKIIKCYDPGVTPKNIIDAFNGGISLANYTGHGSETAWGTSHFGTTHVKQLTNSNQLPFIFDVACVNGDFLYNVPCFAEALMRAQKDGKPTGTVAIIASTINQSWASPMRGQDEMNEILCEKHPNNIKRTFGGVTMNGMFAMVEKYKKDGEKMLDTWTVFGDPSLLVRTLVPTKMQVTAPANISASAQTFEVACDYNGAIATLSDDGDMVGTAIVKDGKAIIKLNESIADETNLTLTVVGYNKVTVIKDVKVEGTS

First: N#CN1CCC(CCOc2ccnc(N)c2)C1 (stereo not shown) [Compound 17, 3-(2-((2-aminopyridin-4-yl)oxy)ethyl)pyrrolidine-1-carbonitrile]
Second: N#CN1CC(COc2ccnc(N)c2)C1 [Compound 10, 3-(((2-aminopyridin-4-yl)oxy)methyl)azetidine-1-carbonitrile]
The IC50 of the first is lower: 1 to 10 µM for the first, greater than 100 µM for the second. The first is the more potent here.

`Cc1cnc(N)cc1OC[C@@H]1CCCN1C#N` [Compound 29, (S)-2-(((2-amino-5-methylpyridin-4-yl)oxy)methyl)pyrrolidine-1-carbonitrile] and `N#CN1CCC[C@H]1COc1cc(N)ncc1Cl` [Compound 41, (S)-2-(((2-amino-5-chloropyridin-4-yl)oxy)methyl)pyrrolidine-1-carbonitrile] fall in the same range of IC50: 10 to 100 µM for the first, 10 to 100 µM for the second.

Compared with `N#CN1CCC[C@@H]1c1ccc2c(N)nccc2c1` [Compound 43, (R)-2-(1-aminoisoquinolin-6-yl)pyrrolidine-1-carbonitrile], `N#CN1CCC[C@H]1c1ccc2c(N)nccc2c1` [Compound 44, (S)-2-(1-aminoisoquinolin-6-yl)pyrrolidine-1-carbonitrile] is higher in IC50: less than 0.1 µM for the first, 0.1 to 1 µM for the second. The first is the more potent here.

First: CC(c1ccc2c(N)nccc2c1)N(C)C#N (stereo not shown) [Compound 46, N-(1-(1-aminoisoquinolin-6-yl)ethyl)-N-methylcyanamide]
Second: CN(C#N)Cc1ccc2c(N)nccc2c1 [Compound 26, N-((1-aminoisoquinolin-6-yl)methyl)-N-methylcyanamide]
The IC50 of the first is higher: 1 to 10 µM for the first, 0.1 to 1 µM for the second.

Compared with `CN(C)c1cc(OCC2CCCN2C#N)ccn1` (stereo not shown) [Compound 23, 2-(((2-(dimethylamino)pyridin-4-yl)oxy)methyl)pyrrolidine-1-carbonitrile], `N#CN1CCC1COc1ccnc(N)c1` (stereo not shown) [Compound 11, 2-(((2-aminopyridin-4-yl)oxy)methyl)azetidine-1-carbonitrile] is higher in IC50: 10 to 100 µM for the first, greater than 100 µM for the second. The first is the more potent here.

`Nc1ccc(CC(NC(=O)C2CCCC2)C(=O)COc2c(F)ccc(F)c2F)cn1` (stereo not shown) [Compound 66, N-(1-(6-aminopyridin-3-yl)-3-oxo-4-(2,3,6-trifluorophenoxy)butan-2-yl)cyclopentanecarboxamide] and `Nc1ccc(CC(NC(=O)C2CCCC2)C(=O)COc2c(F)cccc2F)cn1` (stereo not shown) [Compound 67, N-(1-(6-aminopyridin-3-yl)-4-(2,6-difluorophenoxy)-3-oxobutan-2-yl)cyclopentanecarboxamide] cannot be ordered by IC50: less than 0.1 µM for the first, less than 0.1 µM for the second.

Compared with `N#CN1CCC(Sc2ccnc(N)c2)C1` (stereo not shown) [Compound 38, 3-((2-aminopyridin-4-yl)thio)pyrrolidine-1-carbonitrile], `N#CN1CCCC(Oc2ccnc(N)c2)C1` (stereo not shown) [Compound 9, 3-((2-aminopyridin-4-yl)oxy)piperidine-1-carbonitrile] is lower in IC50: 10 to 100 µM for the first, 0.1 to 1 µM for the second.

`Nc1cc(CC(NC(=O)C2CCCC2)C(=O)COc2c(F)cccc2F)ccn1` (stereo not shown) [Compound 55, N-(1-(2-aminopyridin-4-yl)-4-(2,6-difluorophenoxy)-3-oxobutan-2-yl)cyclopentanecarboxamide] and `Nc1cc(CC(NC(=O)C2CCCC2)C(=O)COc2c(F)c(F)cc(F)c2F)ccn1` (stereo not shown) [Compound 54, N-(1-(2-aminopyridin-4-yl)-3-oxo-4-(2,3,5,6-tetrafluorophenoxy)butan-2-yl)cyclopentanecarboxamide] cannot be ordered by IC50: less than 0.1 µM for the first, less than 0.1 µM for the second.

First: CC(CN(C)C#N)Oc1ccnc(N)c1 (stereo not shown) [Compound 15, N-(2-((2-aminopyridin-4-yl)oxy)propyl)-N-methylcyanamide]
Second: CC(C)N(C#N)CCOc1ccnc(N)c1 [Compound 39, N-(2-((2-aminopyridin-4-yl)oxy)ethyl)-N-isopropylcyanamide]
The IC50 of the first is lower: 0.1 to 1 µM for the first, 10 to 100 µM for the second.

Compared with `CC(C)N(C#N)CCc1ccnc(N)c1` [Compound 5, N-(2-(2-aminopyridin-4-yl)ethyl)-N-isopropylcyanamide], `N#CN1CCC[C@H]1C(O)Cc1ccnc(N)c1` (stereo partly drawn) [Compound 31, (2S)-2-(2-(2-aminopyridin-4-yl)-1-hydroxyethyl)pyrrolidine-1-carbonitrile] is higher in IC50: 10 to 100 µM for the first, greater than 100 µM for the second. The first is the more potent here.

First: CN(C#N)c1ccc2ccnc(N)c2c1 [Compound 1, N-(1-aminoisoquinolin-7-yl)-N-methylcyanamide]
Second: CN(C#N)Cc1cc2ccnc(N)c2o1 [Compound 48, N-((7-aminofuro[2,3-c]pyridin-2-yl)methyl)-N-methylcyanamide]
The IC50 of the first is higher: greater than 100 µM for the first, 0.1 to 1 µM for the second. The second is the more potent here.

First: COC(C)(C)C(=O)NC(Cc1ccc(N)nc1)C(=O)COc1ccon1 (stereo not shown) [Compound 59, N-(1-(6-aminopyridin-3-yl)-4-(isoxazol-3-yloxy)-3-oxobutan-2-yl)-2-methoxy-2-methylpropanamide]
Second: COC(C)(C)C(=O)NC(Cc1ccnc(N)c1)C(=O)COc1ccon1 (stereo not shown) [Compound 63, N-(1-(2-aminopyridin-4-yl)-4-(isoxazol-3-yloxy)-3-oxobutan-2-yl)-2-methoxy-2-methylpropanamide]
The IC50 of the first is lower: 0.1 to 1 µM for the first, 1 to 10 µM for the second. The first is the more potent here.

Compared with `N#CN1CC(Oc2ccnc(N)c2)C1` [Compound 7, 3-((2-aminopyridin-4-yl)oxy)azetidine-1-carbonitrile], `N#CN1CCN(c2ccnc(N)c2)CC1` [Compound 33, 4-(2-aminopyridin-4-yl)piperazine-1-carbonitrile] is lower in IC50: greater than 100 µM for the first, 1 to 10 µM for the second.

Compared with `N#CN1Cc2ccccc2C1COc1ccnc(N)c1` (stereo not shown) [Compound 25, 1-(((2-aminopyridin-4-yl)oxy)methyl)isoindoline-2-carbonitrile], `N#CN1CCC[C@H]1COc1cc(N)ncc1Br` [Compound 30, (S)-2-(((2-amino-5-bromopyridin-4-yl)oxy)methyl)pyrrolidine-1-carbonitrile] is higher in IC50: 0.1 to 1 µM for the first, 10 to 100 µM for the second. The first is the more potent here.

First: CN(C#N)Cc1cc2c(N)nccc2o1 [Compound 4, N-((4-aminofuro[3,2-c]pyridin-2-yl)methyl)-N-methylcyanamide]
Second: COC(C)(C)C(=O)NC(Cc1ccnc(N)c1)C(=O)COc1c(F)ccc(F)c1F (stereo not shown) [Compound 64, N-(1-(2-aminopyridin-4-yl)-3-oxo-4-(2,3,6-trifluorophenoxy)butan-2-yl)-2-methoxy-2-methylpropanamide]
The IC50 of the first is higher: 10 to 100 µM for the first, 0.1 to 1 µM for the second.

Same assay, conditions: Activity (RgpB IC50), compound not tested above 1 μM; 0.02 nM RgpB, 10 μM Boc-Phe-Ser-Arg-MCA, 90 minutes, 37° C.

`CN(C)c1nccc2cc([C@@H]3CCCN3C#N)ccc12` [Compound 52a, (S)-2-(1-(dimethylamino)isoquinolin-6-yl)pyrrolidine-1-carbonitrile] and `COC(C)(C)C(=O)NC(Cc1ccnc(N)c1)C(=O)COC(C(F)(F)F)C(F)(F)F` (stereo not shown) [Compound 73, N-(1-(2-aminopyridin-4-yl)-4-((1,1,1,3,3,3-hexafluoropropan-2-yl)oxy)-3-oxobutan-2-yl)-2-methoxy-2-methylpropanamide] cannot be ordered by IC50: greater than 1 µM for the first, greater than 1 µM for the second.

Molecule `COC(C)(C)C(=O)NC(Cc1ccc(N)nc1)C(=O)COC(C(F)(F)F)C(F)(F)F` (stereo not shown) [Compound 72, N-(1-(6-aminopyridin-3-yl)-4-((1,1,1,3,3,3-hexafluoropropan-2-yl)oxy)-3-oxobutan-2-yl)-2-methoxy-2-methylpropanamide] has an IC50 greater than 1 µM.

System: not given
Assay: not given
Conditions: in vivo, po; cited from earlier work

In the case of `CN(NC(=O)CC[C@H](NC(=O)OCc1ccccc1)C(=O)N[C@@H](CCCCN)C(=O)C(=O)NCc1ccccc1)c1ccccc1` [Kyt-36], the half-life is given as “increases the half-life”.
